Reference: ChEMBL document CHEMBL3885881, “DrugMatrix”

Organism: Rattus norvegicus
Experiment: DrugMatrix - Regimen: Daily Repeat
Format: toxicity, organism-based, Sprague-Dawley
Parameters: regimen Daily Repeat, gender Male, age 6-8 weeks
Conditions: in vivo, po, route oral GAVAGE, vehicle .5 % CMC; for ABSOLUTE BASOPHIL / ABSOLUTE EOSINOPHIL / ABSOLUTE LYMPHOCYTE / ABSOLUTE MONOCYTE / ABSOLUTE SEGMENTED NEUTROPHIL / BASOPHIL / EOSINOPHIL / ERYTHROCYTE COUNT / HEMATOCRIT / HEMOGLOBIN / LEUKOCYTE COUNT / LYMPHOCYTE / MEAN CORPUSCULAR HEMOGLOBIN / MEAN CORPUSCULAR HEMOGLOBIN CONCENTRATION / MEAN CORPUSCULAR VOLUME / MONOCYTE / NEUTROPHIL / NUCLEATED RED BLOOD CELLS / PLATELET COUNT: tissue Blood; for ALANINE AMINOTRANSFERASE / ALBUMIN / ALKALINE PHOSPHATASE / ASPARTATE AMINOTRANSFERASE / BLOOD UREA NITROGEN / CARBON DIOXIDE / CHLORIDE / CHOLESTEROL / CREATINE PHOSPHOKINASE / CREATININE / GLUCOSE / LACTATE DEHYDROGENASE / LIPASE / PHOSPHORUS / POTASSIUM / SODIUM / TOTAL BILIRUBIN / TOTAL PROTEIN / URIC ACID: tissue Plasma
[1] = 55 mg/kg, 120 h, dose level Low, time 5 day
[2] = 1000 mg/kg, 72 h, dose level High, time 3 day
[3] = 1000 mg/kg, 120 h, dose level High, time 5 day

## CCN1CCCC1CNC(=O)c1cc(S(N)(=O)=O)ccc1OC (centres undefined) [SULPIRIDE]
[1]
  ABSOLUTE BASOPHIL: 0 CELLS/uL
  ABSOLUTE EOSINOPHIL: 0 CELLS/uL
  ABSOLUTE LYMPHOCYTE: 14792 CELLS/uL
  ABSOLUTE MONOCYTE: 54.33 CELLS/uL
  ABSOLUTE SEGMENTED NEUTROPHIL: 2187 CELLS/uL
  BASOPHIL: 0%
  EOSINOPHIL: 0%
  ERYTHROCYTE COUNT: 5.47 x10E6/uL
  HEMATOCRIT: 34.67%
  HEMOGLOBIN: 13.83 G/DL
  LEUKOCYTE COUNT: 17.03 x10E3/uL
  LYMPHOCYTE: 86%
  MEAN CORPUSCULAR HEMOGLOBIN: 25.3 pg
  MEAN CORPUSCULAR HEMOGLOBIN CONCENTRATION: 39.93 G/DL
  MEAN CORPUSCULAR VOLUME: 63.4 fL
  MONOCYTE: 0.33%
  NEUTROPHIL: 13.67%
  NUCLEATED RED BLOOD CELLS: 0 /100WBC
  PLATELET COUNT: 1253.33 x10E3/uL
  ALANINE AMINOTRANSFERASE: 50.67 u/L
  ALBUMIN: 4.43 G/DL
  ALKALINE PHOSPHATASE: 322.67 u/L
  ASPARTATE AMINOTRANSFERASE: 90 u/L
  BLOOD UREA NITROGEN: 16 mg/dL
  CARBON DIOXIDE: 28 mmol/L
  CHLORIDE: 102 MEQ/L
  CHOLESTEROL: 86.33 mg/dL
  CREATINE PHOSPHOKINASE: 434.67 u/L
  CREATININE: 0.2 mg/dL
  GLUCOSE: 160.33 mg/dL
  LACTATE DEHYDROGENASE: 149 u/L
  LIPASE: 9 u/L
  PHOSPHORUS: 13 mg/dL
  POTASSIUM: 6.98 MEQ/L
  SODIUM: 147.83 MEQ/L
  TOTAL BILIRUBIN: 0.2 mg/dL
  TOTAL PROTEIN: 6.2 G/DL
  URIC ACID: 1.9 mg/dL
[2]
  ABSOLUTE BASOPHIL: 0 CELLS/uL
  ABSOLUTE EOSINOPHIL: 50.67 CELLS/uL
  ABSOLUTE LYMPHOCYTE: 15013.67 CELLS/uL
  ABSOLUTE MONOCYTE: 0 CELLS/uL
  ABSOLUTE SEGMENTED NEUTROPHIL: 1202.33 CELLS/uL
  BASOPHIL: 0%
  EOSINOPHIL: 0.33%
  ERYTHROCYTE COUNT: 5.92 x10E6/uL
  HEMATOCRIT: 38.13%
  HEMOGLOBIN: 15.07 G/DL
  LEUKOCYTE COUNT: 16.27 x10E3/uL
  LYMPHOCYTE: 92%
  MEAN CORPUSCULAR HEMOGLOBIN: 25.5 pg
  MEAN CORPUSCULAR HEMOGLOBIN CONCENTRATION: 39.53 G/DL
  MEAN CORPUSCULAR VOLUME: 64.5 fL
  MONOCYTE: 0%
  NEUTROPHIL: 7.67%
  NUCLEATED RED BLOOD CELLS: 0 /100WBC
  PLATELET COUNT: 1327 x10E3/uL
  ALANINE AMINOTRANSFERASE: 52.33 u/L
  ALBUMIN: 4.53 G/DL
  ALKALINE PHOSPHATASE: 415 u/L
  ASPARTATE AMINOTRANSFERASE: 78.33 u/L
  BLOOD UREA NITROGEN: 16.67 mg/dL
  CARBON DIOXIDE: 29.33 mmol/L
  CHLORIDE: 102.67 MEQ/L
  CHOLESTEROL: 85 mg/dL
  CREATINE PHOSPHOKINASE: 227.33 u/L
  CREATININE: 0.21 mg/dL
  GLUCOSE: 146 mg/dL
  LACTATE DEHYDROGENASE: 310 u/L
  LIPASE: 9.33 u/L
  PHOSPHORUS: 14.17 mg/dL
  POTASSIUM: 7.01 MEQ/L
  SODIUM: 147.37 MEQ/L
  TOTAL BILIRUBIN: 0.2 mg/dL
  TOTAL PROTEIN: 6.33 G/DL
  URIC ACID: 1.47 mg/dL
[3]
  ABSOLUTE BASOPHIL: 0 CELLS/uL
  ABSOLUTE EOSINOPHIL: 69.67 CELLS/uL
  ABSOLUTE LYMPHOCYTE: 10948.67 CELLS/uL
  ABSOLUTE MONOCYTE: 52.33 CELLS/uL
  ABSOLUTE SEGMENTED NEUTROPHIL: 1129.33 CELLS/uL
  BASOPHIL: 0%
  EOSINOPHIL: 0.67%
  ERYTHROCYTE COUNT: 5.48 x10E6/uL
  HEMATOCRIT: 36.03%
  HEMOGLOBIN: 14.33 G/DL
  LEUKOCYTE COUNT: 12.2 x10E3/uL
  LYMPHOCYTE: 89.67%
  MEAN CORPUSCULAR HEMOGLOBIN: 26.17 pg
  MEAN CORPUSCULAR HEMOGLOBIN CONCENTRATION: 39.77 G/DL
  MEAN CORPUSCULAR VOLUME: 65.8 fL
  MONOCYTE: 0.33%
  NEUTROPHIL: 9.33%
  NUCLEATED RED BLOOD CELLS: 0.33 /100WBC
  PLATELET COUNT: 1145.33 x10E3/uL
  ALANINE AMINOTRANSFERASE: 56.33 u/L
  ALBUMIN: 4.6 G/DL
  ALKALINE PHOSPHATASE: 436.67 u/L
  ASPARTATE AMINOTRANSFERASE: 86 u/L
  BLOOD UREA NITROGEN: 17.67 mg/dL
  CARBON DIOXIDE: 26.33 mmol/L
  CHLORIDE: 99.33 MEQ/L
  CHOLESTEROL: 77 mg/dL
  CREATINE PHOSPHOKINASE: 198 u/L
  CREATININE: 0.18 mg/dL
  GLUCOSE: 150.67 mg/dL
  LACTATE DEHYDROGENASE: 162 u/L
  LIPASE: 13.33 u/L
  PHOSPHORUS: 14.83 mg/dL
  POTASSIUM: 7.2 MEQ/L
  SODIUM: 147.4 MEQ/L
  TOTAL BILIRUBIN: 0.2 mg/dL
  TOTAL PROTEIN: 6.37 G/DL
  URIC ACID: 1.9 mg/dL
